US20220313652A1, “USE OF COMPOUND OR PHARMACEUTICALLY ACCEPTABLE SALT, DIMER OR TRIMER THEREOF IN MANUFACTURE OF MEDICAMENT FOR TREATING CANCER” (priority 2020, published 2022)
Entries after “also recorded” stand apart in the source; their conditions may differ. Where two headings read alike, the source gives them in different places.

Tests used:
[1] = system: liver cancer cell line HepG2; experiment: MTT growth inhibition / IC50 on liver cancer cell line HepG2; format: cell-based
Experimental: After growing to 80% density, the cells were trypsinized, passaged and plated in a 96-well plate with 5000 cells per well. […] After 48 hours, the absorbance at each concentration was detected by the MTT method.

[2] = system: liver cancer cell line HepG2; colorectal cancer cell line LoVo, HT29, SW620, SW480; experiment: MTT growth inhibition, Apatinib alone vs Apatinib+Sotagliflozin on tumor cell lines; format: cell-based; details: Apatinib 5-30 μM alone or with Sotagliflozin 20 μM, 48 hours
Source text: After obtaining the effectiveness of Gefitinib in Example 1, the present disclosure further validated another VEGFR-targeting TKI drug, Apatinib. According to the tissue distribution characteristics of VEGFR and SGLT1/2, the targets of Apatinib and Sotagliflozin, the followings cells were selected for experimental verification: liver cancer cell line HepG2; colorectal cancer cell line LoVo, HT29, SW620, SW480; cervical cancer HeLa; ovarian cancer SKOV3; gastric cancer HGC27; cholangiocarcinoma RBE; esophageal cancer KYSE3, and the like. After growing to 80% density, the cells were trypsinized, passaged and plated in a 96-well plate with 5000 cells per well. After 24 hours, the medium was replaced with a medium containing the corresponding concentration of Apatinib, Sotagliflozin, or the combination of Apatinib and Sotagliflozin. After 48 hours, the absorbance at each concentration was detected by the MTT method. The experiment included the following groups: Control group: cells were cultured in normal culture medium without drug added. […] The cell growth inhibition rate was calculated by dividing the absorbance value at each concentration by the absorbance value of the control group. […] In the figures, the concentration of Apatinib is taken as the abscissa and the cell growth inhibition rate is taken as the ordinate.

[3] = system: lung cancer A549 cells; experiment: Tumor treatment experiment in A549 tumor cell-bearing nude mice
Experimental: After growing to the logarithmic phase, A549 cells were collected and resuspended in serum-free DMEM medium to 5×10^7 cells per ml. Each mouse was inoculated with 100 μl of 5×10^6 cells, and the tumor size was measured 19 days later. Mice were grouped according to the tumor size, and the average tumor size in each group was the same. Mice were administered after grouping.
The dose of Gefitinib was 100 mg per kilogram according to the reported dose for the treatment of A549 xenograft tumor in previous studies. The two drugs were administered by gavage, consistent with the current oral mode in clinical use. The dosing cycle was once every two days. The tumor size was measured every two days. After 40 days of administration, the test was ended, and the tumor was removed and weighed.

[4] = system: liver cancer HepG2 cells, colorectal cancer LoVo, HT29, DLD1, SW480, and HCT116 cells; experiment: Growth inhibition, Lenvatinib alone vs Sotagliflozin combined with Lenvatinib; format: cell-based; details: Sotagliflozin at a safe dose; variety of cell lines
Source text: Therefore, the effect of the combination in the safe concentration range of Sotagliflozin is better than the effect of each single agent. It is worth mentioning that the ability of Sotagliflozin in the combination to enhance the efficacy of VEGFR-targeting TKI drugs is not limited to a single drug of Apatinib.

[5] = system: lung cancer cell line A549; experiment: MTT growth inhibition / IC50 on lung cancer cell line A549; format: cell-based
Source text: According to the tissue distribution characteristics of EGFR and SGLT1/2, the targets of Gefitinib and Sotagliflozin, the followings cells were selected for experimental verification: lung cancer cell line A549; colorectal cancer cell line LoVo, HT29, SW620, HCT116; cervical cancer HeLa; ovarian cancer SKOV3; gastric cancer HGC27; cholangiocarcinoma RBE; esophageal cancer KYSE30, and the like. After growing to 80% density, the cells were trypsinized, passaged and plated in a 96-well plate with 5000 cells per well. After 24 hours, the medium was replaced with a medium containing the corresponding concentration of drug. After 48 hours, the absorbance at each concentration was detected by the MTT method.
(§1) The experiment included the following groups:
Sotagliflozin test group (FIG. 2-a-2): cells were treated by adding Sotagliflozin alone at 6 different concentrations, 0 μM, 10 μM, 30 μM, 40 μM, […] respectively, to the culture medium, and cell survival rate was measured after […] of incubation.

[6] = system: prostate cancer DU145 cells; experiment: MTT inhibitory effect of Sotagliflozin on DU145 cells; format: cell-based; details: 48 hours
Experimental: (§2) Prostate cancer DU145 cells, breast cancer MCF-7 cells, esophageal cancer KYSE30 cells, gastric cancer HGC-27 cells, cholangiocarcinoma RBE cells, ovarian cancer SKOV3 cells, and cervical cancer Hela cells were used to verify the inhibitory effect of Sotagliflozin on tumor cells. After growing to 80% density, the cells were trypsinized, passaged and plated in a 96-well plate with 5000 cells per well. After 24 hours, the medium was replaced with a medium containing the corresponding concentration of drug. After 48 hours, the absorbance at each concentration was detected by the MTT method.
as §1
(§3) Control group: cells were cultured in normal culture medium without drug added.
(§4) Sotagliflozin test group: cells were treated by adding Sotagliflozin at different concentration to each culture medium.
(§5) After incubation, the cell growth inhibition rate was calculated by dividing the absorbance value at each concentration by the absorbance value of the control group. In the figures, the concentration of Sotagliflozin is taken as the abscissa and the cell growth inhibition rate is taken as the ordinate.

[7] = system: breast cancer MCF-7 cells; experiment: MTT inhibitory effect of Sotagliflozin on MCF-7 cells; format: cell-based; details: 48 hours
Experimental: as §2, §1, §3, §4, §5

[8] = system: esophageal cancer KYSE30 cells; experiment: MTT inhibitory effect of Sotagliflozin on KYSE30 cells; format: cell-based; details: 48 hours
Experimental: as §2, §1, §3, §4, §5

[9] = system: gastric cancer HGC-27 cells; experiment: MTT inhibitory effect of Sotagliflozin on HGC-27 cells; format: cell-based; details: 48 hours
Experimental: as §2, §1, §3, §4, §5

[10] = system: cholangiocarcinoma RBE cells; experiment: MTT inhibitory effect of Sotagliflozin on RBE cells; format: cell-based; details: 48 hours
Experimental: as §2, §1, §3, §4, §5

[11] = system: ovarian cancer SKOV3 cells; experiment: MTT inhibitory effect of Sotagliflozin on SKOV3 cells; format: cell-based; details: 48 hours
Experimental: as §2, §1, §3, §4, §5

[12] = system: cervical cancer HeLa cells; experiment: MTT inhibitory effect of Sotagliflozin on HeLa cells; format: cell-based; details: 48 hours
Experimental: as §2, §1, §3, §4, §5

[13] = system: normal human umbilical cord epithelial cells
[14] = A549 tumor-bearing nude mice, gavage once every two days, 40 days

N#CC1(c2ccc(NC(=O)c3cccnc3NCc3ccncc3)cc2)CCCC1 [Apatinib]
IC50 ([1]; Homo sapiens, HepG2, Apatinib alone, cell survival rate after 2 h of incubation, read-out: IC50 value on HepG2 cells): 46 µM | inhibitory effect on tumor cells (cell growth inhibition rate) [2]: limited

COc1cc2ncnc(Nc3ccc(F)c(Cl)c3)c2cc1OCCCN1CCOCC1 [Gefitinib]
Average tumor volume ([3]; mouse, in vivo): 504.8 | Tumor volume ratio of each group to the control group ([3]; mouse, in vivo): 0.4881

COc1cc2nccc(Oc3ccc(NC(=O)NC4CC4)c(Cl)c3)c2cc1C(N)=O [Lenvatinib]
effect of addition of Sotagliflozin on inhibitory effect of Lenvatinib [4]: enhanced the inhibitory effect

Sotagliflozin
IC50 ([5]; Sotagliflozin alone, lung cancer A549 cells, summary value, read-out: IC50): 71.6 µM | IC50 ([5]; single agent alone, cell survival rate after 1 h of incubation, read-out: IC50 value on A549 cells): 73 µM | IC50 ([1]; Sotagliflozin alone, liver cancer HepG2 cells, summary value, read-out: IC50): 116 µM | IC50 ([1]; Sotagliflozin alone, cell survival rate after 2 h of incubation, read-out: IC50 value on HepG2 cells): 116 µM | IC50 [6]: 40.8 µM | IC50 [7]: 64.8 µM | IC50 [8]: 82.3 µM | IC50 [9]: 48.5 µM | IC50 [10]: 182 µM | IC50 [11]: 84.5 µM | IC50 [12]: 82.1 µM | concentration at which mainly cell growth inhibition effect is exhibited [13]: lower than 8 μM | concentration producing great cytotoxicity [13]: higher than 80 μM | Tumor growth inhibition rate [3, 14]: 58.4 | Tumor volume ratio of each group to the control group [3, 14]: 0.416 | Average tumor volume ([3]; A549 tumor-bearing nude mice, gavage once every two days, 40 days, Sotagliflozin 30 mg/kg, Gefitinib 100 mg per kilogram): 430.3 | inhibitory effect on tumor volume / tumor growth ([3]; tumor-bearing mice): can inhibit tumor growth; also recorded: good inhibitory effect on tumor volume
